Measurements as given in patent US10611740B2, “Aryl dihydro-2H-benzo[b][1,4]oxazine sulfonamide and related compounds for use as agonists of RORγ and the treatment of disease” (Lycera Corporation, priority 2015, dated 2020).

Experiments:
Gal4-RORγ-LBD = target: T1, Gal4-RORγ-LBD (Homo sapiens, UniProt P51449); assay: Gal4-RORγ Luciferase Reporter Assay in HEK-293T Cells; type: cell-based; conditions: HEK-293 cells
T1 construct: expressed in transfected cells; host or cells: HEK-293 cells (pcDNA3.1neo plasmid)
T1 sequence (P51449 269-508 limits assumed): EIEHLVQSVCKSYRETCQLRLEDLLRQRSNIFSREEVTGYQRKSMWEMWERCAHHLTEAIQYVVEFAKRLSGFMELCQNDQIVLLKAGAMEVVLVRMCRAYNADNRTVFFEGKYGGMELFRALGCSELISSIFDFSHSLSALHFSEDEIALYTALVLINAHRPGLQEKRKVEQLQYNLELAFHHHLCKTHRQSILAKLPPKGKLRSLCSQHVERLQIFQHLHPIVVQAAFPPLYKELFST
Outline: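 In transfected HEK-293 cells (Gal4-RORγ-LBD, Gal4-luciferase), test agents with 2 μM ursolic acid were incubated overnight at 37 °C before luminescent detection. Values are relative to the ursolic-acid-free, compound-free signal (100).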

RORγ-LBD = target: T2, RORγ-LBD (Homo sapiens, UniProt P51449); assay: RORγ-Ligand Binding Domain (LBD) TR-FRET Assay; type: biochemical;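 as to TR-FRET Assay Max Response: 665/615 nm ratio relative to signal without ursolic acid or compound set at 100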
T2 construct: made in house; host or cells: SF9 cells (baculovirus)
T2 sequence (P51449 269-508 limits assumed): T1 sequence (P51449 269-508 limits assumed)
Outline: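 Lysate from SF9 cells expressing His-RORγ-LBD is diluted to about 3 nM final in 50 mM Tris pH 7.0 assay buffer. A biotin-tagged SRC1 LXXLL peptide goes in at 200 nM final, plus ursolic acid at 2 μM final. Test compounds carry 1% DMSO final; signal read by TR-FRET.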

[1] = luciferase reporter, with 2 μM ursolic acid

SMILES | EC50 (Gal4-RORγ-LBD; 2 μM ursolic acid) | EC50 (RORγ-LBD) | EC50 (Gal4-RORγ-LBD; [1]) | Gal4-RORγ Assay Max Response (Gal4-RORγ-LBD; 2 μM ursolic acid) | TR-FRET Assay Max Response (RORγ-LBD) | Gal4-RORγ Assay Max Response (Gal4-RORγ-LBD; [1])
CC(C)(O)CC[C@H]1CN(S(=O)(=O)c2cccc(C(F)(F)F)c2)c2cc(-c3cc(F)ccc3F)ccc2O1 [Compound 10, (S)-4-(6-(2,5-difluorophenyl)-4-((3-(trifluoromethyl)phenyl)sulfonyl)-3,4-dihydro-2H-benzo[b][1,4]oxazin-2-yl)-2-methylbutan-2-ol] |  | < 500 nM | < 500 nM |  | **** (The symbol “****” indicates a value greater than 200) | ** (The symbol “**” indicates a value in the range of greater than 90 to 150)
O=C(O)[C@H]1C[C@@H]1[C@H]1CN(S(=O)(=O)c2cccc(C(F)(F)F)c2)c2cc(-c3cc(F)ccc3F)ccc2O1 [Compound 54, (1S,2S)-2-((S)-6-(2,5-difluorophenyl)-4-((3-(trifluoromethyl)phenyl)sulfonyl)-3,4-dihydro-2H-benzo[b][1,4]oxazin-2-yl)cyclopropane-1-carboxylic acid] | 500 to 5000 nM | < 500 nM |  | ** (The symbol “**” indicates a value in the range of greater than 90 to 150) | ** (The symbol “**” indicates a value in the range of greater than 90 to 150) | 
O=C(O)CC[C@H]1CN(S(=O)(=O)c2cccc(C(F)(F)F)c2)c2cc(-c3ccc(Cl)cc3Cl)ccc2O1 [Compound 2AB, (S)-3-(6-(2,4-dichlorophenyl)-4-((3-(trifluoromethyl)phenyl)-sulfonyl)-3,4-dihydro-2H-benzo[b][1,4]oxazin-2-yl)propanoic acid] |  | < 500 nM | > 10000 nM |  | **** (The symbol “****” indicates a value greater than 200) | ** (The symbol “**” indicates a value in the range of greater than 90 to 150)
Cn1ccnc1-c1ccc2c(c1)N(S(=O)(=O)c1cccc(C(F)(F)F)c1)C[C@H](CCC(=O)O)O2 [Compound 4L, (S)-3-(6-(1-methyl-1H-imidazol-2-yl)-4-((3-(trifluoromethyl)-phenyl)sulfonyl)-3,4-dihydro-2H-benzo[b][1,4]oxazin-2-yl)propanoic acid] |  | > 10000 nM | > 10000 nM |  | **** (The symbol “****” indicates a value greater than 200) | 
CC(C)(C[C@@H]1CN(S(=O)(=O)c2cccc(C(F)(F)F)c2)c2cc(-c3cc(F)ccc3F)ccc2O1)C(=O)O [Compound 52, (R)-3-(6-(2,5-difluorophenyl)-4-((3-(trifluoromethyl)phenyl)sulfonyl)-3,4-dihydro-2H-benzo[b][1,4]oxazin-2-yl)-2,2-dimethylpropanoic Acid] | 500 to 5000 nM | < 500 nM |  | * (The symbol “*” indicates a value in the range of 25 to 90) | ** (The symbol “**” indicates a value in the range of greater than 90 to 150) | 
CS(=O)(=O)NC(=O)CC[C@H]1CN(S(=O)(=O)c2cccc(C(F)(F)F)c2)c2cc(-c3cc(F)ccc3F)ccc2O1 [Compound 42, (S)-3-(6-(2,5-difluorophenyl)-4-((3-(trifluoromethyl)phenyl)sulfonyl)-3,4-dihydro-2H-benzo[b][1,4]oxazin-2-yl)-N-(methylsulfonyl)propanamide] |  | < 500 nM | < 500 nM |  | **** (The symbol “****” indicates a value greater than 200) | ** (The symbol “**” indicates a value in the range of greater than 90 to 150)

Second part, led by results:

EC50 (Gal4-RORγ-LBD; 2 μM ursolic acid) | EC50 (RORγ-LBD) | EC50 (Gal4-RORγ-LBD; [1]) | SMILES | Gal4-RORγ Assay Max Response (Gal4-RORγ-LBD; 2 μM ursolic acid) | TR-FRET Assay Max Response (RORγ-LBD) | Gal4-RORγ Assay Max Response (Gal4-RORγ-LBD; [1])
< 500 nM | < 500 nM |  | C[C@@H](CC(=O)O)[C@H]1CN(S(=O)(=O)c2cccc(C(F)(F)F)c2)c2cc(-c3cc(F)cc(F)c3Cl)ccc2O1 [Compound 80C, (S)-3-((S)-6-(2-chloro-3,5-difluorophenyl)-4-((3-(trifluoromethyl)phenyl)sulfonyl)-3,4-dihydro-2H-benzo[b][1,4]-oxazin-2-yl)butanoic acid] | ** (The symbol “**” indicates a value in the range of greater than 90 to 150) | *** (The symbol “***” indicates a value in the range of greater than 150 to 200) | 
 | < 500 nM | 500 to 5000 nM | O=C(O)CC[C@H]1CN(S(=O)(=O)c2cccc(Cl)c2)c2cc(-c3cccc(Cl)c3)ccc2O1 [Compound 6B, (S)-3-(6-(3-chlorophenyl)-4-((3-chlorophenyl)sulfonyl)-3,4-dihydro-2H-benzo[b][1,4]oxazin-2-yl)propanoic acid] |  | **** (The symbol “****” indicates a value greater than 200) | ** (The symbol “**” indicates a value in the range of greater than 90 to 150)
500 to 5000 nM | < 500 nM |  | CO[C@@H](C)C(=O)NC[C@H]1CN(S(=O)(=O)c2cccc(C(F)(F)F)c2)c2cc(-c3cccc(F)c3Cl)ccc2O1 [Compound 30CI, (S)-N-(((S)-6-(2-chloro-3-fluorophenyl)-4-((3-(trifluoro-methyl)phenyl)sulfonyl)-3,4-dihydro-2H-benzo[b][1,4]-oxazin-2-yl)methyl)-2-methoxypropanamide] | * (The symbol “*” indicates a value in the range of 25 to 90) | *** (The symbol “***” indicates a value in the range of greater than 150 to 200) | 
< 500 nM | < 500 nM |  | O=C(O)C1(C[C@H]2CN(S(=O)(=O)c3cccc(C(F)(F)F)c3)c3cc(-c4cc(F)cc(Cl)c4)ccc3O2)CCOCC1 [Compound 78E, (S)-4-((6-(3-chloro-5-fluoro-phenyl)-4-((3-(trifluoromethyl)-phenyl)sulfonyl)-3,4-dihydro-2H-benzo[b][1,4]oxazin-2-yl)methyl)tetrahydro-2H-pyran-4-carboxylic acid] | ** (The symbol “**” indicates a value in the range of greater than 90 to 150) | ** (The symbol “**” indicates a value in the range of greater than 90 to 150) | 
< 500 nM | < 500 nM |  | O=C(O)C1(C[C@H]2CN(S(=O)(=O)c3cccc(C(F)(F)F)c3)c3cc(-c4cc(F)cc(F)c4Cl)ccc3O2)CCOCC1 [Compound 78C, (S)-4-((6-(2-chloro-3,5-difluoro-phenyl)-4-((3-(trifluoromethyl)-phenyl)sulfonyl)-3,4-dihydro-2H-benzo[b][1,4]oxazin-2-yl)methyl)tetrahydro-2H-pyran-4-carboxylic acid] | *** (The symbol “***” indicates a value in the range of greater than 150 to 200) | ** (The symbol “**” indicates a value in the range of greater than 90 to 150) | 
 | < 500 nM | < 500 nM | COc1cc(S(=O)(=O)N2C[C@H](CCC(=O)O)Oc3ccc(-c4cc(F)cc(F)c4Cl)cc32)ccc1F [Compound 6K, (S)-3-(6-(2-chloro-3,5-difluorophenyl)-4-((4-fluoro-3-methoxyphenyl)sulfonyl)-3,4-dihydro-2H-benzo[b][1,4]oxazin-2-yl)propanoic acid] |  | *** (The symbol “***” indicates a value in the range of greater than 150 to 200) | ** (The symbol “**” indicates a value in the range of greater than 90 to 150)
 | < 500 nM | < 500 nM | COc1cccc(-c2ccc3c(c2)N(S(=O)(=O)c2ccc(F)c(OC)c2)C[C@H](CNC(=O)C(C)(C)O)O3)c1 [Compound 30S, (S)-N-((4-((4-fluoro-3-methoxyphenyl)sulfonyl)-6-(3-methoxyphenyl)-3,4-dihydro-2H-benzo[b][1,4]oxazin-2-yl)methyl)-2-hydroxy-2-methylpropanamide] |  | **** (The symbol “****” indicates a value greater than 200) | * (The symbol “*” indicates a value in the range of 25 to 90)
 | < 500 nM | < 500 nM | O=C(CO)NC[C@H]1CN(S(=O)(=O)c2cccc(C(F)(F)F)c2)c2cc(-c3cc(F)ccc3F)ccc2O1 [Compound 30BA, (S)-N-((6-(2,5-difluorophenyl)-4-((3-(trifluoromethyl)phenyl)-sulfonyl)-3,4-dihydro-2H-benzo[b][1,4]oxazin-2-yl)methyl)-2-hydroxyacetamide] |  | *** (The symbol “***” indicates a value in the range of greater than 150 to 200) | ** (The symbol “**” indicates a value in the range of greater than 90 to 150)
 | < 500 nM | < 500 nM | O=C(NC[C@H]1CN(S(=O)(=O)c2cccc(C(F)(F)F)c2)c2cc(-c3cc(F)ccc3F)ccc2O1)[C@@H]1C[C@@H]1F [Compound 30AM, (1S,2S)-N-(((S)-6-(2,5-difluoro-phenyl)-4-((3-(trifluoromethyl)-phenyl)sulfonyl)-3,4-dihydro-2H-benzo[b][1,4]oxazin-2-yl)methyl)-2-fluorocyclo-propane-1-carboxamide] |  | **** (The symbol “****” indicates a value greater than 200) | ** (The symbol “**” indicates a value in the range of greater than 90 to 150)
